pIC50: −log10 of the molar value. Where “and” joins values, the source holds several entries; their conditions need not be identical. Equal values may be shown once.
What was measured:
[1] = design: method as in PMID 31019997; settings: mice; cited from earlier work
[2] = tested on: MMC (mouse microglial cell line); test: Fluo-4 calcium imaging of ATP-induced Ca2+ signaling in MMC; type: cell-based; settings: 100 µM ATP, Fluo-4 ΔF/F
Procedure: Real-time changes of [Ca^2+]i in MMCs seeded on glass coverslips at a density of 10,000 cells/cm^2 were measured using the time-lapse imaging module on a BZ-X780 fluorescence microscopy (Keyence LLC, Campbell, CA) and the fluorescent calcium indicator Fluo-4/AM from Invitrogen (ThermoFisher, Waltham, MA) as previously described. For testing the effect of KCa3.1 inhibition on intracellular calcium changes, cells were pre-incubated with senicapoc during the de-esterification step and throughout the course of the experiment. All fluorescence measurements were made at 2-s intervals at room temperature from subconfluent areas of the coverslips to ensure that only individual microglia were measured. Image data were analyzed off-line with Fiji using the ROI-1 click tool and the change in microglial [Ca^2+]i was represented as ΔF/F (change in fluorescence after baseline-subtraction).

KCa3.1 = target: T1, KCa3.1 (Mus musculus, UniProt O89109); test: Whole-cell patch-clamp of KCa3.1 currents in mouse microglial cells (MMC); type: cell-based; settings: 1 µM free Ca2+, ramp -120 to +40 mV, mean ± 95% confidence interval, n = 4, read-out: IC50 for block of microglial KCa3.1 currents
T1 construct: endogenous in cells; host or cells: immortalized mouse microglial cell (MMC) line
Procedure: An immortalized mouse microglial cell (MMC) line was kindly provided by Dr. D.T. Golenbock (University of Massachusetts Medical School, Worcester, MA) and previously used by our laboratory. Cells were cultured in Gibco’s Dulbecco’s modified Eagle’s Medium (DMEM, high glucose, L-glutamine, high pyruvate) with 5% CO2 at 37° with 1% penicillin/streptomycin and 10% fetal bovine serum. For the qPCR experiments, cells were seeded at 200,000 cells/mL; 24 h later, medium was changed to DMEM with 2% FBS and cells were stimulated with 100 ng/mL lipopolysaccharide (LPS), in the presence or absence of senicapoc, or a 0.2% DMSO control. Cells were pre-incubated with senicapoc for 1 h prior to stimulation and harvested 24 h after stimulation.
MMCs were plated on poly-lysine-coated glass coverslips and KCa3.1 currents recorded in the whole-cell mode of the patch-clamp technique with an EPC-10 HEKA amplifier and 1 microM of free Ca^2+ in the pipette solution as previously described.

[3] = tested on: patients with sickle cell disease and healthy volunteers; settings: cited from earlier work
[4] = tested on: male C57BL/6 J mice, tMCAO; test: tMCAO (60 min) in mice, infarct area by T2-weighted MRI; type: in vivo, mouse
Procedure: Reversible focal cerebral ischemia was induced by occlusion of the left middle cerebral artery (MCA) according to the classic filament method of Zea Longa as previously described for mice by our laboratory. All surgeries were performed in the MicroSurgery Core of the UC Davis School of Medicine by a microsurgeon with 20 years of surgical experience using a silicone rubber-coated nylon monofilament with a tip diameter of 0.21 ± 0.02 mm (No. 702112PK5Re, Doccol Corporation). Anesthesia was induced with 5% isoflurane and then maintained with 0.5 to 1.5% isoflurane in medical pure oxygen administered through a facemask. To assure consistent and continuous reduction of cerebral blood flow (CBF), a laser Doppler (Moor Instruments: MOORVMS-LDF) probe adapter was affixed to the surface of the skull over the brain area supplied by the MCA using dental cement. The probe remained in place throughout the MCAO surgery and CBF was measured continuously to confirm occlusion and later establishment of reperfusion. Animals were kept under anesthesia and body temperature was monitored throughout the whole procedure and maintained at > 36.5 °C using a feedback-controlled heating pad. Following 60 min of MCAO, the filament was withdrawn to allow reperfusion. Blood flow measurements were continued for another 15 min before removing the adapter and the laser Doppler probe. Animals received subcutaneous Buprenex at 0.02 mg/kg every 12 h to limit post-surgical pain for 24 h after surgery. The survival rate was 93%. […] In this study, out of the animals surviving to day 8 (45 out of 48), two animals were excluded because they lacked an obvious neurological deficit score at 12 h. Animals that met inclusion criteria were assigned to the 3 groups (low- and high-dose senicapoc or vehicle) based on a computer-generated randomization scheme. […]
Infarct volume was evaluated with T2-weighted MRI imaging in the Nuclear Magnetic Resonance Facility at UC Davis. […] The multi-slice multi-echo (sequence (TE:56 ms; TR: 1681.2 ms) was used to acquire images of 7 coronal sections with 1-mm thickness from the junction of olfactory bulb and cortex. The infarct area was analyzed with Adobe Photoshop Elements by an investigator blinded to the treatments. On day 3, infarct area was corrected for edema and calculated with the equation: (L − N)/L × 100%; L, left (contralateral) hemisphere area; N, non-infarcted tissue area in the ipsilateral hemisphere. By day 8 post tMCAO, there typically is either only minimal or no associated cerebral edema, so no correction for edema is required and the percentage of infarcted area was calculated with the equation: (Infarct Area/Ipsilateral Hemisphere Area) × 100%.

For `NC(=O)C(c1ccccc1)(c1ccc(F)cc1)c1ccc(F)cc1` [senicapoc], the half-life [1] is given as 1 h, the “Ca2+ influx induced by ATP” value [2] is given as “concentration-dependently reduced” and the pIC50 (KCa3.1) is given as 8.15 and 8.16. The “hemolysis, hematocrit and hemoglobin levels in phase II study” value ([3]; 10 mg/day, double-blind placebo-controlled) was “reduced hemolysis and significantly increased hematocrit and hemoglobin levels”, the “phase III endpoint: reduction in number of vaso-occlusive pain crises” value [3] was “did not meet the set clinical endpoint” and the “tolerability in dose escalating phase I clinical trials” value ([3]; healthy volunteers and patients with sickle cell disease) was “well tolerated”. For the same molecule, the T2-weighted lesion area ([4]; 10 mg/kg IP twice daily started 12 h after reperfusion, day 8, n = 7, vehicle 20.5 ± 1.3%) was 11.6 ± 1.1%, the T2-weighted lesion area ([4]; 40 mg/kg IP twice daily started 12 h after reperfusion, day 8, n = 7, vehicle 20.5 ± 1.3%) was 9.3 ± 1.3% and the T2-weighted lesion area ([4]; 40 mg/kg started 3 h after tMCAO, day 3, n = 8, P = 0.199, vehicle 21.4 ± 2.3%) was 16.1 ± 3.1%. The T2-weighted lesion area ([4]; 40 mg/kg started 3 h after tMCAO, day 8, n = 8, P = 0.0318, vehicle 16.6 ± 1.0%) was 11.7 ± 1.8%.
